Source: US6716809B1, “Mage-A3 peptides presented by HLA class molecules” (priority 1997, dated 2004)

Assays:
Format in all cases: cell-based, human
[1] = system: CD4+ clone 436/B6.37 (B6/37); test: IFN-γ/TNF production by CD4+ clone B6/37 (clone 37) stimulated with peptide- or protein-pulsed EBV-B cells; conditions: for IFN-γ production by clone 37: autologous LB 1555 EBV-B cells; for IFN-γ production by clone B6/37, truncated peptides: autologous EBV-B cells pulsed with truncated peptides (FIG. 8)
Procedure: The microcultures that contained proliferating CD4^+ T cells were assessed around 35 days after the start of the culture for their capacity to produce TNF and/or IFN-γ when stimulated with autologous EBV-B cells pulsed with the His-MAGE-A3 protein. Autologous EBV-B cells (500,000/ml) were incubated for 18-20 hours at 37° C. in the presence of 20 μg/ml of His-MAGE-A3 protein, or Ovalbumin (Sigma) as a negative control. EBV-B cells referred to herein are B cells which were immortalized with Epstein Barr virus. The EBV-B cells were prepared according to art-standard procedures. Protein-pulsed EBV-B cells were washed and added at 5,000 per round-bottomed microwell to 2,500 CD4^+ T lymphocytes in 150 μl of complete Iscove's medium supplemented with L-glutamine, L-arginine, L-asparagine, 10% human serum and IL-2 (25 U/ml). After 18-20 hours, supernatants were harvested and assessed for TNF content by testing the cytotoxic effect of the supernatants on TNF-sensitive WEHI 164 clone 13 cells as previously described (Espevik and Nissen-Meyer, J. Immunol. Methods 95:99-105, 1986) in a MTT colorimetric assay as previously described (Hansen et al., J. Immunol. Methods 119:203-210, 1989; Traversari et al., Immunogenetics 35:145-152, 1992). IFN-γ production was measured using an ELISA assay developed in our laboratory (see below) with reagents from Medgenix Diagnostics-Biosource (Fleurus, Belgium). Inhibition with mAbs W6/32 (anti-HLA class I) or 2B6 (anti-HLA-DR) was performed by addition of a 1/20 dilution of ascites during the experiment. Cytokine secretion in response to autologous EBV-B cells pulsed with MAGE-A3 was considered significant if it was at least twofold above the background response of T cells to EBV-B cells pulsed with ovalbumin, and if it exceeded 500 pg of IFN-γ or 50 pg/ml of TNF per ml.
In order to identify the MAGE-A3 peptides recognized by these CD4^+ clones, 16 amino acid peptides, corresponding to parts of the MAGE-A3 protein sequence were synthesized, loaded on the autologous EBV-B cells and tested for recognition (FIGS. 4 and 5). Peptides were synthesized using F-moc for transient NH2-terminal protection and were characterized using mass spectrometry. […] Lyophilized synthetic peptides were dissolved in DMSO (Merck) and used at a final concentration of 500 μM, 50 μM or 5 μg/ml. EBV-B cells (5,000 per round-bottomed microwell) were incubated 2 hours at 37° C., 8% CO2 in the presence of the different peptides, the indicated concentrations representing the peptide concentration during the incubation step. CD4^+ clones were then added at 2,500 cells per well. Assay medium was Iscove's medium supplemented with L-glutamine, L-arginine, L-asparagine, 10% human serum and IL-2 (25 U/ml). After 18-20 hours, supernatants were harvested and assessed for TNF-α and/or IFN-γ secretion. IFN-γ production was measured using an ELISA test (20-4000 pg/ml) developed in the laboratory with reagents from Medgenix Diagnostics-Biosource (Fleurus, Belgium).
To further define the HLA-restriction element utilized by clone B6/37, additional EBV-B cell lines were used for peptide presentation as described above (FIG. 7).
(§1) Unlike HLA-class I-restricted peptides, class II-restricted peptides usually vary in length and tolerate extensions at both the amino and carboxy termini, because they are not fixed by their ends in the groove. It is therefore difficult to define precisely the length of the antigenic peptide. Therefore a large number of MAGE-A3 peptides were tested at different concentrations (Tables IV and V). […] 2500 cells of clone 37 were then cocultured for 20 h in round-bottomed microwells with 5000 peptide-pulsed cells. IFN-γ released in the supernatant of the cocultures was measured in an ELISA assay. The experiments were performed in triplicate.

LB1158 CD4+ clone 22 = test: IFN-γ production by CD4+ clone 22 stimulated with peptide- or protein-pulsed EBV-B cells; conditions: HLA-DR13 EBV-B cells
Procedure: (§2) In order to confirm the efficacy of this protocol, dendritic cells were fed with the MAGE-3 protein, using conditions described above, to stimulate autologous CD4^+ T lymphocytes from hemochromatosis patient LB1158 or from melanoma patient 7002. After four restimulations, the specific production of IFN-γ by an aliquot of each of the microcultures stimulated with the autologous EBV-B cells loaded with MAGE-A3 were tested on day 35 for patient LB1158 and day 37 for patient 7002. For each individual, one positive microculture was cloned using autologous EBV-B cells as stimulating cells, either retrotransduced with MFG Ii MAGE-A3 for LB1158, or fed with protein MAGE-A3 for patient 7002. […] Specifically, autologous EBV-B cells were incubated for 20 h in the presence of 20 μg/ml of recombinant His-MAGE-A3 protein. Clone 22 (2500 cells) was incubated overnight with 5000 MAGE-A3 loaded EBV-B cells in round botton microwells in the presence or absence of monoclonal antibodies which recognize HLA-A,B,C (W6/32) or HLA-DR (2B6). IFN-γ secretion was measured after 20 h by ELISA (FIG. 15A).
(§3) Peptides corresponding to parts of MAGE-A3 (e.g., MAGE107-122, MAGE111-126, MAGE115-130, MAGE119-134) were tested for recognition by clone 2 and 22. HLA-DR13 EBV-B cells were pulsed for 2 h with different concentrations of these peptides. Clones 2 and 37 (2500 cells) were incubated with 5000 peptide pulsed cells in round-bottomed microwells for 20 h and assayed for IFN-γ production.
(§4) Autologous or allogeneic EBV-B cells were pulsed for 2 h with 1 μg/ml MAGE-A3119-134 peptide, and then washed. Clones 2 or 22 were incubated with 5000 peptide-pulsed EBV-B cells in round-bottomed microwells for 20 h and the clones' reactivity to the EBV-B cells was measured by ELISA as IFN-γ secretion. Experiments were performed in triplicate.
as §1, with “triplicate. […] Clones 2 and 22 (2500 cells) were then cocultured for 20 h in round-bottomed microwells with 5000 peptide-pulsed cells. IFN-γ released in the supernatant of the cocultures was measured in an ELISA assay. The experiments was performed twice in duplicates.” for “triplicate.”

7002 CD4+ clone 2 = test: IFN-γ production by CD4+ clone 2 stimulated with peptide- or protein-pulsed EBV-B cells; conditions: HLA-DR13 EBV-B cells
Procedure: as §2, §3, §4
as §1, with “triplicate. […] Clones 2 and 22 (2500 cells) were then cocultured for 20 h in round-bottomed microwells with 5000 peptide-pulsed cells. IFN-γ released in the supernatant of the cocultures was measured in an ELISA assay. The experiments was performed twice in duplicates.” for “triplicate.”

[2] = peptide concentration 100 ng/ml
[3] = peptide concentration 300 ng/ml
[4] = peptide concentration 1000 ng/ml

Row | Substance | IFN-γ production by clone 37 ([1]; peptide concentration 1 ng/ml) | IFN-γ production by clone 37 ([1]; peptide concentration 3 ng/ml) | IFN-γ production by clone 37 ([1]; peptide concentration 10 ng/ml) | IFN-γ production by clone 37 ([1]; peptide concentration 30 ng/ml) | IFN-γ production by clone 37 [1, 2] | IFN-γ production by clone 37 [1, 3] | IFN-γ production by clone 37 [1, 4] | also measured
1 | AELVHFLLLKYRAR (listed as Homo sapiens) | 151 pg/mL | 272 pg/mL | 802 pg/mL | 2862 pg/mL | >4000 pg/mL | >4000 pg/mL | >4000 pg/mL | recognition of short peptide by clone 37 ([1]; conclusion from Table IV): well recognized
2 | MAGE-A3118-126: shortened MAGE-A3 peptide, residues 118-126 |  |  |  |  |  |  |  | IFN-γ production by clone B6/37, truncated peptides [1]: did not induce the production of significant amounts
3 | AELVHFLLLKYRA (listed as Homo sapiens) | 134 pg/mL | 139 pg/mL | 620 pg/mL | 2523 pg/mL | >4000 pg/mL | >4000 pg/mL | >4000 pg/mL | 
4 | KYRAREPVTKAE (listed as Homo sapiens) |  |  |  |  |  |  |  | IFN-γ production by clone 22 (LB1158 CD4+ clone 22; peptide concentration 1 ng/ml): 0 pg/mL; IFN-γ production by clone 22 (LB1158 CD4+ clone 22; peptide concentration 3 ng/ml): 5 pg/mL; IFN-γ production by clone 22 (LB1158 CD4+ clone 22; peptide concentration 10 ng/ml): 0 pg/mL; IFN-γ production by clone 22 (LB1158 CD4+ clone 22; peptide concentration 30 ng/ml): 5 pg/mL; IFN-γ production by clone 22 (LB1158 CD4+ clone 22; [2]): 16 pg/mL; IFN-γ production by clone 22 (LB1158 CD4+ clone 22; [3]): 135 pg/mL; IFN-γ production by clone 22 (LB1158 CD4+ clone 22; [4]): 542 pg/mL; IFN-γ production by clone 2 (7002 CD4+ clone 2; peptide concentration 1 ng/ml): 0 pg/mL; IFN-γ production by clone 2 (7002 CD4+ clone 2; peptide concentration 3 ng/ml): 0 pg/mL; IFN-γ production by clone 2 (7002 CD4+ clone 2; peptide concentration 10 ng/ml): 0 pg/mL; IFN-γ production by clone 2 (7002 CD4+ clone 2; peptide concentration 30 ng/ml): 0 pg/mL; IFN-γ production by clone 2 (7002 CD4+ clone 2; [2]): 0 pg/mL; IFN-γ production by clone 2 (7002 CD4+ clone 2; [3]): 0 pg/mL; IFN-γ production by clone 2 (7002 CD4+ clone 2; [4]): 50 pg/mL
5 | FLLLKYRAREP (listed as Homo sapiens) |  |  |  |  |  |  |  | IFN-γ production by clone 22 (LB1158 CD4+ clone 22; peptide concentration 1 ng/ml): 0 pg/mL; IFN-γ production by clone 22 (LB1158 CD4+ clone 22; peptide concentration 3 ng/ml): 0 pg/mL; IFN-γ production by clone 22 (LB1158 CD4+ clone 22; peptide concentration 10 ng/ml): 1 pg/mL; IFN-γ production by clone 22 (LB1158 CD4+ clone 22; peptide concentration 30 ng/ml): 7 pg/mL; IFN-γ production by clone 22 (LB1158 CD4+ clone 22; [2]): 6 pg/mL; IFN-γ production by clone 22 (LB1158 CD4+ clone 22; [3]): 7 pg/mL; IFN-γ production by clone 22 (LB1158 CD4+ clone 22; [4]): 30 pg/mL; IFN-γ production by clone 2 (7002 CD4+ clone 2; peptide concentration 1 ng/ml): 0 pg/mL; IFN-γ production by clone 2 (7002 CD4+ clone 2; peptide concentration 3 ng/ml): 0 pg/mL; IFN-γ production by clone 2 (7002 CD4+ clone 2; peptide concentration 10 ng/ml): 0 pg/mL; IFN-γ production by clone 2 (7002 CD4+ clone 2; peptide concentration 30 ng/ml): 0 pg/mL; IFN-γ production by clone 2 (7002 CD4+ clone 2; [2]): 85 pg/mL; IFN-γ production by clone 2 (7002 CD4+ clone 2; [3]): 0 pg/mL; IFN-γ production by clone 2 (7002 CD4+ clone 2; [4]): 23 pg/mL
6 | AELVHFLLLKYRARE (listed as Homo sapiens) | 38 pg/mL | 230 pg/mL | 235 pg/mL | 1473 pg/mL | 3837 pg/mL | >4000 pg/mL | >4000 pg/mL | 
7 | ELVHFLLLKYRAR (listed as Homo sapiens) | 47 pg/mL | 192 pg/mL | 333 pg/mL | 1899 pg/mL | 3633 pg/mL | >4000 pg/mL | >4000 pg/mL | 
8 | ELVHFLLLKYRARE (listed as Homo sapiens) | 25 pg/mL | 160 pg/mL | 166 pg/mL | 1087 pg/mL | 3095 pg/mL | >4000 pg/mL | >4000 pg/mL | 
9 | MAGE-A3116-126: shortened MAGE-A3 peptide, residues 116-126 (LVHFLLLKYRA; listed as Homo sapiens) |  |  |  |  |  |  |  | IFN-γ production by clone B6/37, truncated peptides [1]: reduced amounts
10 | VHFLLLKYRA (listed as Homo sapiens) [MAGE-A3117-126] |  |  |  |  |  |  |  | IFN-γ production by clone B6/37, truncated peptides [1]: reduced amounts
11 | VAELVHFLLLKYRAR (listed as Homo sapiens) | 146 pg/mL | 262 pg/mL | 779 pg/mL | 2963 pg/mL | >4000 pg/mL | >4000 pg/mL | >4000 pg/mL | 
12 | VAELVHFLLLKYRA (listed as Homo sapiens) | 7 pg/mL | 179 pg/mL | 87 pg/mL | 648 pg/mL | 2534 pg/mL | >4000 pg/mL | >4000 pg/mL | 
13 | ELVHFLLLKYRA (listed as Homo sapiens) [MAGE-A3115-126] |  |  |  |  |  |  |  | IFN-γ production by clone B6/37, truncated peptides [1]: induced significant production
14 | VAELVHFLLLKYRARE (listed as Homo sapiens) | 30 pg/mL | 300 pg/mL | 376 pg/mL | 1647 pg/mL | >4000 pg/mL | >4000 pg/mL | >4000 pg/mL | 
